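Tested at 5 concentrations; 48 h exposure; 96-well plates; endpoints linearly interpolated, else capped at highest concentration. The concentration for 50% growth inhibition is given as GI50.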 Activity calls are given as the source filed them. No stated cut-off is given here; in the data, active = GI50 up to about 1.1 µM and inactive = higher.
What was measured:
Assay in all cases: NCI-60 cell line screen, 48 h
TK-10 = tested on: TK-10
OVCAR-8 = tested on: OVCAR-8
HT-29 = tested on: HT-29
HOP-92 = tested on: HOP-92
HL-60 = tested on: HL-60
HOP-62 = tested on: HOP-62
MDA-MB-231 = tested on: MDA-MB-231
EKVX = tested on: EKVX
MDA-MB-435 = tested on: MDA-MB-435
KM12 = tested on: KM12
BT-549 = tested on: BT-549
OVCAR-3 = tested on: OVCAR-3
SK-MEL-2 = tested on: SK-MEL-2
SNB-19 = tested on: SNB-19
HCT-116 = tested on: HCT-116
IGROV-1 = tested on: IGROV-1
NCI/ADR-RES = tested on: NCI/ADR-RES
U-251 = tested on: U-251
HCC 2998 = tested on: HCC 2998
NCI-H460 = tested on: NCI-H460

Structure (SMILES)	GI50 (TK-10)	GI50 (OVCAR-8)	GI50 (HT-29)	GI50 (HOP-92)	GI50 (HL-60)	GI50 (HOP-62)	GI50 (MDA-MB-231)	GI50 (EKVX)	GI50 (MDA-MB-435)	GI50 (KM12)	GI50 (BT-549)	GI50 (OVCAR-3)	GI50 (SK-MEL-2)	GI50 (SNB-19)	GI50 (HCT-116)	GI50 (IGROV-1)	GI50 (NCI/ADR-RES)	GI50 (U-251)	GI50 (HCC 2998)	GI50 (NCI-H460)
CCOc1cc(NC(C)=O)ccc1C(=O)NN1C(=O)C(Oc2ccccc2)C1c1ccc(O)c(OC)c1 (stereo unspecified)	40.8 µM (inactive)	22.1 µM (inactive)	36.7 µM (inactive)	6.04 µM (inactive)	19.8 µM (inactive)	42.7 µM (inactive)	34 µM (inactive)	35.3 µM (inactive)	42.4 µM (inactive)	39.1 µM (inactive)	28.4 µM (inactive)	41.5 µM (inactive)	26.9 µM (inactive)	> 100 µM (inactive)	52.4 µM (inactive)	34 µM (inactive)	37.4 µM (inactive)	48.9 µM (inactive)	–	–
Nc1nc(N)c2nnn(C[C@H]3CC[C@@H](CO)C3)c2n1	> 100 µM (inactive)	> 100 µM (inactive)	> 100 µM (inactive)	> 100 µM (inactive)	> 100 µM (inactive)	> 100 µM (inactive)	> 100 µM (inactive)	> 100 µM (inactive)	> 100 µM (inactive)	> 100 µM (inactive)	> 100 µM (inactive)	> 100 µM (inactive)	–	> 100 µM (inactive)	> 100 µM (inactive)	54.7 µM (inactive)	> 100 µM (inactive)	> 100 µM (inactive)	> 100 µM (inactive)	> 100 µM (inactive)
[N-]=[N+]=NC[C@H]1OCO[C@H](CN=[N+]=[N-])[C@@H](OCCOCCCl)[C@@H]1OCCOCCCl	> 100 µM (inactive)	> 100 µM (inactive)	> 100 µM (inactive)	–	> 100 µM (inactive)	> 100 µM (inactive)	> 100 µM (inactive)	> 100 µM (inactive)	> 100 µM (inactive)	> 100 µM (inactive)	> 100 µM (inactive)	> 100 µM (inactive)	> 100 µM (inactive)	> 100 µM (inactive)	> 100 µM (inactive)	> 100 µM (inactive)	> 100 µM (inactive)	> 100 µM (inactive)	> 100 µM (inactive)	> 100 µM (inactive)
Fc1nc(-c2c3ccccc3c3sc4ccccc4n23)nc(N2CCOCCOCCOCCOCC2)n1	54.2 µM (inactive)	40.2 µM (inactive)	46.6 µM (inactive)	20.9 µM (inactive)	–	23.7 µM (inactive)	86.9 µM (inactive)	> 100 µM (inactive)	> 100 µM (inactive)	> 100 µM (inactive)	87.1 µM (inactive)	63.1 µM (inactive)	–	35.6 µM (inactive)	62.4 µM (inactive)	> 100 µM (inactive)	56.8 µM (inactive)	44.8 µM (inactive)	> 100 µM (inactive)	> 100 µM (inactive)
c1csc(-c2cscc2-c2cccs2)c1	91 µM (inactive)	57.4 µM (inactive)	91.4 µM (inactive)	78.5 µM (inactive)	30.3 µM (inactive)	27.6 µM (inactive)	> 100 µM (inactive)	58.3 µM (inactive)	33.4 µM (inactive)	22.3 µM (inactive)	63.4 µM (inactive)	17.4 µM (inactive)	–	> 100 µM (inactive)	29.8 µM (inactive)	67.8 µM (inactive)	42.9 µM (inactive)	> 100 µM (inactive)	22.9 µM (inactive)	> 100 µM (inactive)
CCOC(=O)c1c(C)n(C)c2c1cc(O)c1[nH]c3c(c12)CCCC3	22.9 µM (inactive)	21 µM (inactive)	18.8 µM (inactive)	0.0185 µM (active)	21.6 µM (inactive)	38.3 µM (inactive)	17.1 µM (inactive)	17.6 µM (inactive)	13.4 µM (inactive)	15 µM (inactive)	45.7 µM (inactive)	5.62 µM (inactive)	18.5 µM (inactive)	38.4 µM (inactive)	17.9 µM (inactive)	12.7 µM (inactive)	17.9 µM (inactive)	18.2 µM (inactive)	–	20.5 µM (inactive)
O=c1c2cc3c(=O)n4c(cc(-c5ccccc5)c5cc(Cl)ccc54)nc3cc2nc2cc(-c3ccccc3)c3cc(Cl)ccc3n12	> 100 µM (inactive)	> 100 µM (inactive)	> 100 µM (inactive)	> 100 µM (inactive)	–	34.9 µM (inactive)	39.4 µM (inactive)	75.3 µM (inactive)	> 100 µM (inactive)	> 100 µM (inactive)	> 100 µM (inactive)	> 100 µM (inactive)	> 100 µM (inactive)	45.6 µM (inactive)	> 100 µM (inactive)	> 100 µM (inactive)	> 100 µM (inactive)	52.4 µM (inactive)	> 100 µM (inactive)	> 100 µM (inactive)
CC(=O)C(=NNc1ccc(-n2c(C)nc3ccc(Br)cc3c2=O)cc1)C(C)=O	56.9 µM (inactive)	53.7 µM (inactive)	> 100 µM (inactive)	74.3 µM (inactive)	> 100 µM (inactive)	35.8 µM (inactive)	37.2 µM (inactive)	> 100 µM (inactive)	> 100 µM (inactive)	> 100 µM (inactive)	> 100 µM (inactive)	> 100 µM (inactive)	> 100 µM (inactive)	45.6 µM (inactive)	88.3 µM (inactive)	> 100 µM (inactive)	54.1 µM (inactive)	58.2 µM (inactive)	–	> 100 µM (inactive)
COc1cccc(CCn2c(N)c(C(=O)O)c3ccc([N+](=O)[O-])cc3c2=O)c1	–	36.6 µM (inactive)	38.5 µM (inactive)	–	> 100 µM (inactive)	37.2 µM (inactive)	16.9 µM (inactive)	51.5 µM (inactive)	38.3 µM (inactive)	–	25.4 µM (inactive)	29.4 µM (inactive)	22.6 µM (inactive)	39.1 µM (inactive)	25.1 µM (inactive)	36.7 µM (inactive)	28.9 µM (inactive)	25.9 µM (inactive)	53.2 µM (inactive)	32.8 µM (inactive)
Cc1cc2[nH]c3[nH]c(=O)[nH]c(=O)c3c2cc1C	> 100 µM (inactive)	> 100 µM (inactive)	> 100 µM (inactive)	> 100 µM (inactive)	> 10 µM (inactive)	29 µM (inactive)	24.4 µM (inactive)	20.3 µM (inactive)	> 100 µM (inactive)	> 100 µM (inactive)	> 100 µM (inactive)	–	74.5 µM (inactive)	89.3 µM (inactive)	> 100 µM (inactive)	> 100 µM (inactive)	> 100 µM (inactive)	–	> 100 µM (inactive)	–
CC(C)C(/C=C/c1ccc(Cl)c(Cl)c1)=N\NC(=O)N/N=C(/C=C/c1ccc(Cl)c(Cl)c1)C(C)C	> 100 µM (inactive)	> 100 µM (inactive)	> 100 µM (inactive)	> 100 µM (inactive)	80 µM (inactive)	> 100 µM (inactive)	> 100 µM (inactive)	> 100 µM (inactive)	> 100 µM (inactive)	> 100 µM (inactive)	> 100 µM (inactive)	> 100 µM (inactive)	–	> 100 µM (inactive)	–	> 100 µM (inactive)	> 100 µM (inactive)	> 100 µM (inactive)	> 100 µM (inactive)	> 100 µM (inactive)
N#CC(NNC(=O)c1c(Cl)c(Cl)c(Cl)c(Cl)c1-c1nc2cc(C(=O)c3ccccc3)ccc2[nH]1)c1cccc(Oc2ccccc2)c1 (stereo unspecified)	31.3 µM (inactive)	41.6 µM (inactive)	27.4 µM (inactive)	17.5 µM (inactive)	28.3 µM (inactive)	25.8 µM (inactive)	19 µM (inactive)	15.8 µM (inactive)	16.6 µM (inactive)	36.6 µM (inactive)	19.1 µM (inactive)	28.1 µM (inactive)	20.5 µM (inactive)	26.6 µM (inactive)	29.6 µM (inactive)	26.7 µM (inactive)	19 µM (inactive)	23.4 µM (inactive)	–	–
CCOC(=O)C1(C(=O)OCC)Nc2cccnc2N(C)N1	20.9 µM (inactive)	18.5 µM (inactive)	14.7 µM (inactive)	14.7 µM (inactive)	22.8 µM (inactive)	35.5 µM (inactive)	20.2 µM (inactive)	–	18.9 µM (inactive)	50.1 µM (inactive)	67.3 µM (inactive)	20.5 µM (inactive)	19.3 µM (inactive)	> 100 µM (inactive)	18.8 µM (inactive)	22.8 µM (inactive)	20 µM (inactive)	20.8 µM (inactive)	–	> 100 µM (inactive)
CCc1c(Cl)nc(Cl)nc1Cl	1.58 µM (inactive)	0.299 µM (active)	0.121 µM (active)	0.565 µM (active)	0.206 µM (active)	2.09 µM (inactive)	0.346 µM (active)	0.519 µM (active)	0.0834 µM (active)	1.08 µM (active)	0.0199 µM (active)	0.104 µM (active)	–	1.45 µM (inactive)	0.0885 µM (active)	0.542 µM (active)	0.382 µM (active)	0.331 µM (active)	0.214 µM (active)	1.93 µM (inactive)
N=C(N)Nc1nc2cc([N+](=O)[O-])ccc2[nH]1	81.8 µM (inactive)	> 100 µM (inactive)	> 100 µM (inactive)	> 100 µM (inactive)	> 100 µM (inactive)	> 100 µM (inactive)	> 100 µM (inactive)	41.6 µM (inactive)	> 100 µM (inactive)	37.3 µM (inactive)	48.1 µM (inactive)	99.3 µM (inactive)	> 100 µM (inactive)	> 100 µM (inactive)	> 100 µM (inactive)	> 100 µM (inactive)	58.5 µM (inactive)	91.4 µM (inactive)	–	> 100 µM (inactive)

Reference: ChEMBL document CHEMBL1201862, “PubChem BioAssay data set” (2004)
